Legend:
[1] = system: marine bacteria strain S4; experiment: disc inhibition assay, strain S4; type: cell-based, Bacillus algicola; details: strain 4, 50 μg of compound per disc; for zone of inhibition at 50 µg/disc: Guptibacillus algicola, S4, 24 h, read-out: zone of inhibition
Protocol: (§1) The disc inhibition assay was used. This assay is a conventional method routinely used for screening antibacterial compounds to determine degree of susceptibility to antibacterial compounds. The diameter of the zone of inhibition is proportional to the degree of susceptibility of the bacterial strain. The compounds were tested against 13 strains of marine bacteria isolated from Singapore coastal waters.
(§2) 13 strains of marine bacteria were isolated from fouling communities located in the coastal waters around Singapore. These were characterized in earlier studies and reported in Teo et al. (U.S. patent application Ser. No. 11/265,833) and Choong et al (in prep). In addition, four reference bacterial strains were added tested: Escherichia coli (Strain K12, ATCC 15222), E. coli (strain DH5a), Pseudomonas aeruginosa (strain LMG 12228; ATCC 15692) and P. putida (strain KT2440; ATCC 47054). All the bacteria were also tested against five antibiotics: ampicillin (AMP), tetracycline (TETR), erythromycin (ERY), chloramphenicol (CHL) and streptomycin (STREP).
(§3) Disks comprising the compounds to be tested were prepared as follows. The antibacterial assay, the pure compounds were made up to a concentration of 2 mgml^−1 in DMSO. 25 μl of the stock was pipetted onto each 6 mm sterile disc (Macherey-Nagel #484000) to obtain 50 μg of compound per disc. Equivalent volume of DMSO was used inoculated for the control.
(§4) For all disk inhibition assays, bacterial cultures were grown in marine broth (Pronadisa #1217.00). Sterile swabs dipped into the cultures were used to inoculate Marine Agar plates with a bacterial lawn by smearing the culture over the surface. After inoculating the plates, discs with antibiotics, pharmaceuticals or control blanks were placed on each plate. Each concentration of antibiotic or pharmaceutical was tested with two replicates. After the disks were placed on the agar surface, plates were incubated overnight in the dark at 35° C. After incubation, plates were examined for zones of inhibition or clearing around control and treated disks. The diameter of any zone of clearing or inhibition was measured using Vernier calipers. There were two replicates per treatment, and the average was taken.

[2] = system: cyprids of Balanus amphitrite; experiment: barnacle settlement assay; type: in vivo; details: for percentage of cyprids that settled: after 24 hours incubation, averaged over two trials
Protocol: Pure compounds were suspended in DMSO and sonicated to obtain a stock solution of 50 mg ml^−1 in DMSO. This stock solution is stored at −20° C. in 4 ml amber screw cap vials. For the bioassays, a small volume of stock solution was added to 1 μm filtered seawater in a glass scintillation vial. This suspension was then sonicated around 10 minutes. Serial dilutions were generated to the required range of concentrations. Serial dilution of the equivalent amounts of DMSO in seawater was used as the control.
The barnacle bioassay method used follows from the method first introduced by Rittschof et al. (1992), and subsequently by other authors (Willemsen et al., 1998). This method is now standard practice for many antifouling screening of novel compounds.
Barnacle settlement assays were based on methodology from Rittschof et al. (1992). Barnacle larvae from field-collected adults were reared on an algal mixture of 1:1 v/v of Tetraselmis suecica and Chaetoceros muelleri at 25° C., at approximately 5×10^5 cells per ml density. On this regime, larvae metamorphose to cyprids in 5 days. These cyprids were aged at 4° C. for 2-3 days, and 45-70% settlement after 24 hours (Willemsen et al., 1998).
Settlement tests were conducted in 7 ml neutral glass vials (Samco® T1 03N1) 34 mm by 23 mm diameter, with 20-40 cyprids per well. Test solutions were made up to twice the required final concentration. 0.5 ml of test solution was added into each well, and cyprids were transferred into each well in 0.5 ml of seawater. Assays were done in triplicate. As before, there were two sets of controls, a blank control consisting 3 tubes of seawater only, and DMSO control consisting of the equivalent dilution series with DMSO without compound. After 24 hours, larvae that had attached and metamorphosed were enumerated and the result expressed as percentage settlement. Larvae not attached were scored as not settled. The assays were repeated and the concentration that caused 50% settlement inhibition (ED50) was determined by pro bit analysis using a basic computer program (Lieberman, 1983), or by estimation from graphed data.

[3] = system: marine bacteria strain S10; experiment: disc inhibition assay, strain S10; type: cell-based, Halobacillus trueperi; details: strain 10, 50 μg of compound per disc; for zone of inhibition at 50 µg/disc: Halobacillus trueperi, S10, 24 h, read-out: zone of inhibition
Protocol: as §1, §2, §3, §4

[4] = system: marine bacteria strain S29; experiment: disc inhibition assay, strain S29; type: cell-based, Bacillus hwajinpoensis; details: strain 29, 50 μg of compound per disc; for zone of inhibition at 50 µg/disc: Guptibacillus hwajinpoensis, S29, 24 h, read-out: zone of inhibition
Protocol: as §1, §2, §3, §4

[5] = system: marine bacteria strain S9; experiment: disc inhibition assay, strain S9; type: cell-based, Bacillus algicola; details: strain 9, 50 μg of compound per disc; for zone of inhibition at 50 µg/disc: Guptibacillus algicola, S9, 24 h, read-out: zone of inhibition
Protocol: as §1, §2, §3, §4

[6] = system: marine bacteria strain S17; experiment: disc inhibition assay, strain S17; type: cell-based, Gordonia terrae; details: strain 17, 50 μg of compound per disc; for zone of inhibition at 50 µg/disc: Gordonia terrae, S17, 24 h, read-out: zone of inhibition
Protocol: as §1, §2, §3, §4

[7] = system: marine bacteria strain S30; experiment: disc inhibition assay, strain S30; type: cell-based, Bacillus borophilicus; details: strain 30, 50 μg of compound per disc; for zone of inhibition at 50 µg/disc: Bacillus, S30, 24 h, read-out: zone of inhibition
Protocol: as §1, §2, §3, §4

[8] = system: marine bacteria strain S3; experiment: disc inhibition assay, strain S3; type: cell-based, Erythrobacter aquimaris; details: strain 3, 50 μg of compound per disc; for zone of inhibition at 50 µg/disc: Qipengyuania aquimaris, S3, 24 h, read-out: zone of inhibition
Protocol: as §1, §2, §3, §4

[9] = system: marine bacteria strain S28; experiment: disc inhibition assay, strain S28; type: cell-based, Arthrobacter protophormial; details: strain 28, 50 μg of compound per disc; for zone of inhibition at 50 µg/disc: Arthrobacter, S28, 24 h, read-out: zone of inhibition
Protocol: as §1, §2, §3, §4

[10] = system: marine bacteria strain S14; experiment: disc inhibition assay, strain S14; type: cell-based, Vibrio probioticus; details: strain 14, 50 μg of compound per disc
Protocol: as §1, §2
(§5) Disks comprising the compounds to be tested were prepared as follows. The antibacterial assay, the pure compounds were made up to a concentration of 2 mgml^−1 in DMSO. […] Equivalent volume of DMSO was used inoculated for the control.
as §4

[11] = system: marine bacteria strain S1; experiment: disc inhibition assay, strain S1; type: cell-based, Rhodovulum iodosum; details: strain 1, 50 μg of compound per disc
Protocol: as §1, §2, §3, §4

[12] = system: marine bacteria strain S27; experiment: disc inhibition assay, strain S27; type: cell-based, Tenacibaculum lutimaris; details: strain 27, 50 μg of compound per disc; for zone of inhibition at 50 µg/disc: Tenacibaculum lutimaris, S27, 24 h, read-out: zone of inhibition
Protocol: as §1, §2, §3, §4

[13] = system: marine bacteria strain S18; experiment: disc inhibition assay, strain S18; type: cell-based, Microbacterium esteraromaticum; details: strain 18, 50 μg of compound per disc; for zone of inhibition at 50 µg/disc: Microbacterium esteraromaticum, S18, 24 h, read-out: zone of inhibition
Protocol: as §1, §2, §5, §4

[14] = system: marine bacteria strain S16; experiment: disc inhibition assay, strain S16; type: cell-based, Pseudoalteromonas piscicida; details: for zone of inhibition: strain 16, 50 μg of compound per disc
Protocol: as §1, §2, §3, §4

Compound	zone of inhibition [1]	zone of inhibition [3]	zone of inhibition [4]	zone of inhibition at 50 µg/disc [5] [mm]	zone of inhibition [6]	zone of inhibition [7]	zone of inhibition [8]	zone of inhibition [9]	zone of inhibition [10]	zone of inhibition [11]	zone of inhibition [12]	zone of inhibition [13]	zone of inhibition at 50 µg/disc [1] [mm]	zone of inhibition at 50 µg/disc [3] [mm]	zone of inhibition at 50 µg/disc [4] [mm]	zone of inhibition at 50 µg/disc [6] [mm]	zone of inhibition at 50 µg/disc [8] [mm]	zone of inhibition at 50 µg/disc [12] [mm]	zone of inhibition at 50 µg/disc [13] [mm]	zone of inhibition [14]	also measured
CN1CCC(O)(c2ccc(Cl)cc2)CC1 [Compound 4.6]	−	−	−	2 to 5	−	−	−	−	−	−	−	−									IC50 ([2]; Amphibalanus amphitrite, 24 h, Table 3(a), concentration that caused 50% settlement inhibition, 24 hours, cyprids, read-out: ED50 (the source's name)): < 10 µg/mL; zone of inhibition at 50 µg/disc ([14]; Pseudoalteromonas piscicida, S16, 24 h): 2 to 5 mm
CCCCC(CCCC)C(=O)N1CCCCC1 [Compound 12.2, 2-Butyl-1-(piperidin-1-yl)hexan-1-one]				2 to 5					−	−			2 to 5	2 to 5	2 to 5	2 to 5	5 to 10	2 to 5	5 to 10	−	percentage of cyprids that settled ([2]; 0.2 ug/ml): 8.94%; percentage of cyprids that settled ([2]; 1 ug/ml): 8.42%; percentage of cyprids that settled ([2]; 5 ug/ml): 8.37%; percentage of cyprids that settled ([2]; 25 ug/ml): 0%; zone of inhibition at 50 µg/disc [7]: 2 to 5 mm; zone of inhibition at 50 µg/disc [9]: 2 to 5 mm
C=CCCCCC(C(=O)N1CCCCC1)c1ccccc1 (centres unmarked) [Compound 12.4]				2 to 5		−		−	−	−			2 to 5	2 to 5	2 to 5	2 to 5	> 10	2 to 5	5 to 10	−	
O=C(C(CCCCC(O)CO)c1ccccc1)N1CCCCC1 (centres unmarked) [Compound 12.5]	−	−			−	−	−	−	−	−	−	−			2 to 5					−	zone of inhibition [5]: −
CCCCC(CCCCC(O)CO)C(=O)N1CCCCC1 (centres unmarked) [Compound 12.6]	−	−	−		−	−	−	−	−	−	−	−								−	zone of inhibition [5]: −
C=CCCCCC(CCCC)C(=O)N1CCCCC1 (centres unmarked) [Compound 12.7]				5 to 10					−				5 to 10	5 to 10	2 to 5	5 to 10	> 10	2 to 5	> 10	−	zone of inhibition at 50 µg/disc [7]: 2 to 5 mm; zone of inhibition at 50 µg/disc [9]: 2 to 5 mm; zone of inhibition at 50 µg/disc ([11]; Rhodovulum iodosum, S1, read-out: zone of inhibition): 2 to 5 mm

Source: patent US20160311788A1, “Antifouling Compounds And Use Thereof” (National University of Singapore, priority 2008, published 2016)
